Test results published in ChEMBL document CHEMBL1201862, “PubChem BioAssay data set” (2004).
Values belong to the compound of their own block, whether it stands above or below them. Activity calls are given as the source filed them.

What was measured:
[1] = target: Nucleotide-binding oligomerization domain-containing protein 1 (Homo sapiens, UniProt Q9Y239); experiment: blockers of NOD1 pathway activity – revised, SAR follow-up (AID 2333); format: functional
Tumor necrosis factor = Tumor necrosis factor (Homo sapiens, UniProt P01375); experiment: analog potency on TNFa NF-kB signaling – cell-based, revised, SAR follow-up (AID 2337); format: functional
Sequence of Tumor necrosis factor (P01375 whole entry): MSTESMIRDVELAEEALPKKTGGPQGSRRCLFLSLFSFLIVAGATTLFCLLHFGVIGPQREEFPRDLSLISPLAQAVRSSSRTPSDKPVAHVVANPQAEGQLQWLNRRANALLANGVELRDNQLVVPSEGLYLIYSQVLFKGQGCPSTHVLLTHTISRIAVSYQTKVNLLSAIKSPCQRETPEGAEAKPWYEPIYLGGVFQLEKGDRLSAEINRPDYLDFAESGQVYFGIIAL

HEK293 [2] = experiment: cells; details: Homo sapiens
Cytochrome P450 2D6 = Cytochrome P450 2D6 (Homo sapiens, UniProt P10635);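 note: CYP2D6 member of a cytochrome P450 panel assay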
Sequence of Cytochrome P450 2D6 (P10635 whole entry): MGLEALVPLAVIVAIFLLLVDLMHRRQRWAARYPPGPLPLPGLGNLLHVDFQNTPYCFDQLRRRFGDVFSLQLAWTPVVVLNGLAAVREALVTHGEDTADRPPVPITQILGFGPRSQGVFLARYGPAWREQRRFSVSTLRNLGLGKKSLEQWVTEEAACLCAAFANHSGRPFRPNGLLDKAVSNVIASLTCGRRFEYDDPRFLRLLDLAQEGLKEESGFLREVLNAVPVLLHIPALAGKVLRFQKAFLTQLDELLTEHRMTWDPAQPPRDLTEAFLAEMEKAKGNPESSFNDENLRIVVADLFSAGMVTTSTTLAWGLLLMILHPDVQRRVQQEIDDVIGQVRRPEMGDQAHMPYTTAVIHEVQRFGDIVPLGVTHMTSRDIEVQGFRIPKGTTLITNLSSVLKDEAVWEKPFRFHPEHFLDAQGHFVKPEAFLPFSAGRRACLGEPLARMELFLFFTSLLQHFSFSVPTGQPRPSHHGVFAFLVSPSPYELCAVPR

Cytochrome P450 3A4 = Cytochrome P450 3A4 (Homo sapiens, UniProt P08684);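 note: CYP3A4 tested as one member of a cytochrome P450 panel screen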
Sequence of Cytochrome P450 3A4 (P08684 whole entry): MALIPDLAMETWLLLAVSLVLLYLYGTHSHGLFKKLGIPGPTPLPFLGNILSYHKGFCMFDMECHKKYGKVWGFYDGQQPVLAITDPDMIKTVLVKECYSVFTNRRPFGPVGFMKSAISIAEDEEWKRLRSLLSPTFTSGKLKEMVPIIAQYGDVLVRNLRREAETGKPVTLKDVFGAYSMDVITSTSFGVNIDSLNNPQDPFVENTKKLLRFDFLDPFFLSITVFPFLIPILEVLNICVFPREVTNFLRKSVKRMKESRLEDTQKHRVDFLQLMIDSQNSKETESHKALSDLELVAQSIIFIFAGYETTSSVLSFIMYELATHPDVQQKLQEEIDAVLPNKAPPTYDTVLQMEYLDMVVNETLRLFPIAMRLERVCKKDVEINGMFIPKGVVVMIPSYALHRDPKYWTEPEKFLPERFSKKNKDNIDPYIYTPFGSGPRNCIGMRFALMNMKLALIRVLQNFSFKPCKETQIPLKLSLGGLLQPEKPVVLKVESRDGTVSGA

Cytochrome P450 2C19 = Cytochrome P450 2C19 (Homo sapiens, UniProt P33261); experiment: Cytochrome panel assay with activity outcomes. Panel member name: p450-cyp2c19 Compounds with AC50 equal or less than 10 uM are considered active; format: functional; details: read-out: AC50
[3] = target: T1, Sphingosine 1-phosphate receptor 4 (Homo sapiens, UniProt O95977); experiment: Fluorescence dose response cell-based high throughput screening assay for agonists of the Sphingosine 1-Phosphate Receptor 4 (S1P4). [Related pubchem assays: 1509 (Primary screen.), 1523 (Confirmation screen in triplicates.)]; format: functional
T1 sequence (O95977 whole entry): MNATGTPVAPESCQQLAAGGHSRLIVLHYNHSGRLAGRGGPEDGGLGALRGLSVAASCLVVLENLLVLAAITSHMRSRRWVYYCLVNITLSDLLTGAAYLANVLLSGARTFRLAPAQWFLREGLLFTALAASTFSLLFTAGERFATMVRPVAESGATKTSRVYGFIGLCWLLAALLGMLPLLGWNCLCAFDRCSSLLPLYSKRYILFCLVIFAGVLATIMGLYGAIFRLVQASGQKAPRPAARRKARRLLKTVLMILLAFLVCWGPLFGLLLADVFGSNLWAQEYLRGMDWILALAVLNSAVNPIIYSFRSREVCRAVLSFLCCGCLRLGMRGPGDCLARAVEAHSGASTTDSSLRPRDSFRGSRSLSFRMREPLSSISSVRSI

[4] = target: Sphingosine 1-phosphate receptor 1 (Homo sapiens, UniProt P21453); experiment: Fluorescence-based counterscreen assay for S1P4 agonists: Cell-based dose response high throughput screening assay to identify agonists of the Sphingosine 1-Phosphate Receptor 1 (S1P1). [Related pubchem assays (depositor defined):AID1509, AID1523, AID1801, AID463107, AID463118, AID463119, AID463122, AID463123, AID463129, AID463225, AID504400, AID504460]; format: functional
[5] = target: T2, E3 ubiquitin-protein ligase XIAP (Homo sapiens, UniProt P98170); experiment: Counter Screen using XIAP-Bir3 for Chemical Antagonists of Bir1/2 domains of IAP-family anti-apoptotic proteins. [Related pubchem assays (depositor defined):AID1018, AID1449, AID1514, AID1638, AID1749, AID1750, AID488957, AID488963]
T2 sequence (P98170 whole entry): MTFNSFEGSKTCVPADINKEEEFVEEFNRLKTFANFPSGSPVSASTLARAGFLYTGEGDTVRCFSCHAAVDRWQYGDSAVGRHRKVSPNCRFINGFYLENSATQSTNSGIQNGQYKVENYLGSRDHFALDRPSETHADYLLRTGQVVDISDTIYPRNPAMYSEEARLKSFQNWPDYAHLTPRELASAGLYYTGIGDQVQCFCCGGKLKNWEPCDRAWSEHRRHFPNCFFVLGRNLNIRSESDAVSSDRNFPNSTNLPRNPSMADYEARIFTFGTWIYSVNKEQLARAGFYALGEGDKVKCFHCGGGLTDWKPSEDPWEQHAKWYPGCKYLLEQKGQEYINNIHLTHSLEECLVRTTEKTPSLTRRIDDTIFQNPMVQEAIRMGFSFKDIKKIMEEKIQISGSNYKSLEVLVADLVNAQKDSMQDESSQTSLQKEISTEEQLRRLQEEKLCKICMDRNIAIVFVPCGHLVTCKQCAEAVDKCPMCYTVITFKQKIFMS

[6] = target: T2, E3 ubiquitin-protein ligase XIAP; experiment: small molecules displacing peptide from XIAP – biochemical, IAP family, fluorescence polarization (AID 1018); format: functional
[7] = target: Glucose-6-phosphate 1-dehydrogenase (Homo sapiens, UniProt P11413); experiment: inhibition of Homo sapiens G6PD, dose series – biochemical, fluorescence, selectivity assay for P. falciparum G6PD inhibitor project, dose response (AID 504792); format: functional
Sequence of Glucose-6-phosphate 1-dehydrogenase (P11413 whole entry): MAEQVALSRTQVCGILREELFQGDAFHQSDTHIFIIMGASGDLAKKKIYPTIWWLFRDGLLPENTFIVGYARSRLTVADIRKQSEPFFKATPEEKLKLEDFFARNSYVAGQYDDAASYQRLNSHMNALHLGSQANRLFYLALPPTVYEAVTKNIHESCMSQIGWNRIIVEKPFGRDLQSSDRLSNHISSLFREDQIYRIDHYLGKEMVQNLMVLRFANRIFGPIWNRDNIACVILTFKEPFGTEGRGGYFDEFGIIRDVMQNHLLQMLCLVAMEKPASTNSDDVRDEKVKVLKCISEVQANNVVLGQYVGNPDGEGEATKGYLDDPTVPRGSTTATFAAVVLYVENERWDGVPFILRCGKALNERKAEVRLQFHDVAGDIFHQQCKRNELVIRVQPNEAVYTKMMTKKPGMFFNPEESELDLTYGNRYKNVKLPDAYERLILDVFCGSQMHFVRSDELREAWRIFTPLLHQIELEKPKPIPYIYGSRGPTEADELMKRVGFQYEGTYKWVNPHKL

[8] = target: T3, Polyadenylate-binding protein 1 (Homo sapiens, UniProt P11940); experiment: MLLE binding blockers, Cy5 peptide tracer – biochemical, fluorescence polarization, Cy5-PAM2 peptide, secondary, miRNA deadenylation inhibitor project, dose response (AID 602260); format: functional; details: read-out: IC50_Mean
T3 sequence (P11940 whole entry, the tested form may be a part): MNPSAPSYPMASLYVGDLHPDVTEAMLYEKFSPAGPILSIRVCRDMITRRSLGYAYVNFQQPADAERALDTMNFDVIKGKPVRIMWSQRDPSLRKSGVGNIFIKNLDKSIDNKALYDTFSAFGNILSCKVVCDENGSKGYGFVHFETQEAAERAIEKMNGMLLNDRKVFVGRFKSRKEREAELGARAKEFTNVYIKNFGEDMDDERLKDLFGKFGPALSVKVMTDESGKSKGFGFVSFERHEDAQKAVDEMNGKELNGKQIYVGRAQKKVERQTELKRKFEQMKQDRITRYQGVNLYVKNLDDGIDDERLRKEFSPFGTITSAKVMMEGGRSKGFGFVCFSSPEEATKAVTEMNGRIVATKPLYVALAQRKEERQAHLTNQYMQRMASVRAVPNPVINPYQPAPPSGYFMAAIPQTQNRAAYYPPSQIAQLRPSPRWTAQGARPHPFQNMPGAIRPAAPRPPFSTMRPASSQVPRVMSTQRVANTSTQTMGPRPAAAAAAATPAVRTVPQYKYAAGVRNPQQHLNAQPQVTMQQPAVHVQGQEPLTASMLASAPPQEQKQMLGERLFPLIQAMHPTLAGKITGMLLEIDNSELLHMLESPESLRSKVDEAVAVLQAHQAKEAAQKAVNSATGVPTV

[9] = target: T3, Polyadenylate-binding protein 1; experiment: MLLE domain peptide-binding blockers, IC50 – biochemical, fluorescence polarization, FITC-PAM2 peptide, dose response (AID 602259); format: functional; details: read-out: IC50_Mean
[10] = target: Disintegrin and metalloproteinase domain-containing protein 17 (Homo sapiens, UniProt P78536); experiment: exosite inhibitors of ADAM17, dose response, biochemical (AID 743260)
Sequence of Disintegrin and metalloproteinase domain-containing protein 17 (P78536 whole entry, the tested form may be a part): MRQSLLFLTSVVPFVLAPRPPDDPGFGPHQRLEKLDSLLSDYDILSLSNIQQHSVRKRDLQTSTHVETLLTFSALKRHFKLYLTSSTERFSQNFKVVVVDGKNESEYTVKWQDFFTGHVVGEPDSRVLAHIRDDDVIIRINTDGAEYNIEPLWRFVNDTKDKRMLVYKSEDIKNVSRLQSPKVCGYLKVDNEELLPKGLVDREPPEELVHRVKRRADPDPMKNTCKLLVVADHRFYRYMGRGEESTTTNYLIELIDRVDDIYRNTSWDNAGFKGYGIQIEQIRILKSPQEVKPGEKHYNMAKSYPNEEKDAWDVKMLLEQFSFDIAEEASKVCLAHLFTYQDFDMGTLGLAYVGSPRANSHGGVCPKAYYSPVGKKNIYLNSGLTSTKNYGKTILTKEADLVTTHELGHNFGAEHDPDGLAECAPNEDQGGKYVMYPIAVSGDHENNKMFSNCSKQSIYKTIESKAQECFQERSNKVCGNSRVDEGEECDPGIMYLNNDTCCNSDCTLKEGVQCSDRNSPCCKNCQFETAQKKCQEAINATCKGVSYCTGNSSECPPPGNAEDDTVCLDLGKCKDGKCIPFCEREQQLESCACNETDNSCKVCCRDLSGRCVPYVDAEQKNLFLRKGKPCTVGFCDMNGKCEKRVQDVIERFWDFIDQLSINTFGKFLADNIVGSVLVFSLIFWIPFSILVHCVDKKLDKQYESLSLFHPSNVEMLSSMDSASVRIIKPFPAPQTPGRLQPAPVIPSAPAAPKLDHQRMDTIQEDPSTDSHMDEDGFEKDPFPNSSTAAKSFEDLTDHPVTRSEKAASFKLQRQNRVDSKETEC

[11] = target: T4, Calpain-2 catalytic subunit (Sus scrofa, UniProt P43367); experiment: m-calpain protease blockers, concentration series – biochemical, fluorogenic peptide substrate, dose response (AID 1420); format: functional
T4 sequence (P43367 whole entry): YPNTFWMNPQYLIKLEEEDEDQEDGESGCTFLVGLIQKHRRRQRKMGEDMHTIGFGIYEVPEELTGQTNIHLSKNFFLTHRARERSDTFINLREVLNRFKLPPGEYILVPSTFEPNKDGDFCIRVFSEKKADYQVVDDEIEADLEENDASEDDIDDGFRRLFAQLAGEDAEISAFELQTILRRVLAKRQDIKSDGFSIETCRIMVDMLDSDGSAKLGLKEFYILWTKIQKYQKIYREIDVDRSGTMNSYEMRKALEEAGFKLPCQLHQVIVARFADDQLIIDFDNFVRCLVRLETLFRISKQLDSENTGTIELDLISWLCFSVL

[12] = target: T5, High affinity choline transporter 1 (Homo sapiens, UniProt Q9GZV3); experiment: human choline transporter blockers, potency – cell-based, 5-point CRC, membrane potential dye, dose response (AID 504840); format: functional
T5 sequence (Q9GZV3 whole entry): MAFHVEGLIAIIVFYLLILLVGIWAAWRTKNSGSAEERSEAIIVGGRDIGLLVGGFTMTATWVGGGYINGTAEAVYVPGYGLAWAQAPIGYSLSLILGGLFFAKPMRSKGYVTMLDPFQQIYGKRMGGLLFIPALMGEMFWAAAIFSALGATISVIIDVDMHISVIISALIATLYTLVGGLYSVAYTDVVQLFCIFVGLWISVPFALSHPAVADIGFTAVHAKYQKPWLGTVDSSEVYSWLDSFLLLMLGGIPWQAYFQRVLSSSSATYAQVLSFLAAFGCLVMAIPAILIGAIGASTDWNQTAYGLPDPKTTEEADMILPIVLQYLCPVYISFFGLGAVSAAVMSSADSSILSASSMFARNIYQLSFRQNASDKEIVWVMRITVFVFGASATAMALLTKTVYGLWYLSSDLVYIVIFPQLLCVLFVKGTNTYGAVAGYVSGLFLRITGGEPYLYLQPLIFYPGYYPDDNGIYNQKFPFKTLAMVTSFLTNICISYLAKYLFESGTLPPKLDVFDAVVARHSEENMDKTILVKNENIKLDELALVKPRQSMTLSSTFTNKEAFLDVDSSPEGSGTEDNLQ

[13] = target: T6, Microphthalmia-associated transcription factor (Homo sapiens, UniProt O75030); experiment: reducers of TRPM1 reporter luminescence, concentration series – cell-based, SK-MEL-5, cherry-picked, set 3, MITF inhibitor project, dose response (AID 493073); format: functional;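 note: SK-MEL-5 melanoma cells with luciferase driven by the MITF target TRPM1 promoter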
T6 sequence (O75030 whole entry): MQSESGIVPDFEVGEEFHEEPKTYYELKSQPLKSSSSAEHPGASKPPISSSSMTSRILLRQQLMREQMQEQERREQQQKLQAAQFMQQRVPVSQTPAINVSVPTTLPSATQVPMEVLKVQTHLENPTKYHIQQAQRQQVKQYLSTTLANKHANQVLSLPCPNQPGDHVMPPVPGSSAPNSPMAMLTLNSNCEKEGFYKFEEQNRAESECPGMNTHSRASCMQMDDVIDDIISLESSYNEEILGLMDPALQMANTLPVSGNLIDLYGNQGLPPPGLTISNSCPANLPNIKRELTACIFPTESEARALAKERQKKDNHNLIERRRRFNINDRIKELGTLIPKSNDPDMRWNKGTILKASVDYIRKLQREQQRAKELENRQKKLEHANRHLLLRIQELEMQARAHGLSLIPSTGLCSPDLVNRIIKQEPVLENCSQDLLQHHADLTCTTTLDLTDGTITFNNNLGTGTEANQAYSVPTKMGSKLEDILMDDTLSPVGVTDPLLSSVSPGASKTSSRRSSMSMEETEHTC

HEK293 [14] = experiment: NOD2 signaling inhibitors in MDP-stimulated cells, cell-based, uHTS, luminescence (AID 2001); format: functional; details: Homo sapiens
HEK293 [15] = experiment: cells; format: functional, cell-based; details: Homo sapiens
HEK293 [16] = experiment: cells; format: functional, cell-based; details: Homo sapiens; remark: listed apart in the source
HEK293 [17] = experiment: inhibition of NOD1-driven NF-kB reporter – cell-based, luminescence, uHTS, primary screen (AID 1578); format: functional; details: Homo sapiens

Sequence of Nucleotide-binding oligomerization domain-containing protein 1 (Q9Y239 whole entry, the tested form may be a part): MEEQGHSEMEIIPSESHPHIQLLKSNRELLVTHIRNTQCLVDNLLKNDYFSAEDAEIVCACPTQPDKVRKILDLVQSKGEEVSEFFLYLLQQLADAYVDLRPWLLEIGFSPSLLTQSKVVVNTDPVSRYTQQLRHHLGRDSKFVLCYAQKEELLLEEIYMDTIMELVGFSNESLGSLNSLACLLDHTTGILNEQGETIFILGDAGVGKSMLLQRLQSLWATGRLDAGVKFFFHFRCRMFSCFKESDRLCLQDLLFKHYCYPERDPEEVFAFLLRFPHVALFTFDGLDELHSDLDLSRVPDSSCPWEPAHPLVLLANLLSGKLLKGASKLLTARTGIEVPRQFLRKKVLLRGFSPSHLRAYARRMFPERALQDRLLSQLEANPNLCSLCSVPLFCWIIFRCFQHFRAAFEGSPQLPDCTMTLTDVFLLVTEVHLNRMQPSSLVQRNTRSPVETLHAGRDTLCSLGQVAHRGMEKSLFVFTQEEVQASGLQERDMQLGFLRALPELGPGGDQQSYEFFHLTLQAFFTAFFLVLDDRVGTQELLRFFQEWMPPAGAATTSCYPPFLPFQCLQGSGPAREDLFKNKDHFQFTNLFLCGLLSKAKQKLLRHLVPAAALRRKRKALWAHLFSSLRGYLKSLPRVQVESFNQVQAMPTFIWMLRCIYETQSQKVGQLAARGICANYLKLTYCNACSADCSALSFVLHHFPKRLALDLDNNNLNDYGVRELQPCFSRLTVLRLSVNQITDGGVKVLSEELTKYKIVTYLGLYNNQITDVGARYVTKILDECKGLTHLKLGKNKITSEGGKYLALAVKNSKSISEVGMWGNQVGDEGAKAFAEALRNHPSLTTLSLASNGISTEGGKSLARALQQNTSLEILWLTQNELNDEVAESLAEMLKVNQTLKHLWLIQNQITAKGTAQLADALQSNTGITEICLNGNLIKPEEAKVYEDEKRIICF

SMILES: O=C(Nc1ccc(S(=O)(=O)O)cc1)c1ccc(CN2CCc3ccccc3C2)cc1
- IC50 [1]: > 20 µM (inactive)
- IC50 (Tumor necrosis factor): > 20 µM (inactive)
- IC50 (HEK293 [2]): > 20 µM (inactive)

SMILES: COC(=O)N1CCC2(CC1)CCN(c1ccccn1)CC2
- AC50 (Cytochrome P450 2D6): 10 µM (inconclusive)
- AC50 (Cytochrome P450 3A4): inconclusive
- AC50 (Cytochrome P450 2C19): 10 µM (inconclusive)

SMILES: COc1ccc(-n2nc(C(=O)N3CCN(Cc4ccc5c(c4)OCO5)CC3)c3ccccc3c2=O)cc1
- IC50 [5]: > 100 µM (inactive)
- IC50 [6]: > 100 µM (not active)

SMILES: S=c1[nH]nc(-c2sccc2OCc2ccc(Cl)cc2Cl)[nH]1
- IC50 [8]: > 66 µM (inactive)
- IC50 [9]: > 66 µM (inactive)
- IC50 [10]: > 69.5 µM (inactive)
- IC50 [11]: 10.1 µM (not active)
- IC50 [12]: 11.5 µM (active)

SMILES: O=C(c1ccc(S(=O)(=O)Cc2ccccc2Cl)c([N+](=O)[O-])c1)N1CCN(c2ccccn2)CC1
- AC50 [13]: 9.49 µM (active)
- IC50 (HEK293 [14]): 3.63 µM (active)
- IC50 (HEK293 [15]): 2.81 µM (active)
- IC50 [1]: 4.24 µM (active)
- IC50 (HEK293 [16]): > 20 µM (inactive)
- EC50 (HEK293 [17]): 11.8 µM (active)
- IC50 (Tumor necrosis factor): 4.53 µM (active)
- IC50 (HEK293 [2]): 16.3 µM (active)

Now from value to compound:

- EC50 [3]: 32.2 µM (not active)
- EC50 [4]: > 49.8 µM (inactive)
SMILES: N#Cc1c(-n2cccc2C=O)sc2c1CCCC2

- IC50 [7]: > 80 µM (inactive)
SMILES: N#Cc1ccc(Oc2cccc3cccnc23)c([N+](=O)[O-])c1

- IC50 [7]: 46 µM (inactive)
SMILES: COc1ccc(CN(C)S(=O)(=O)c2nnc(NC(=O)c3ccc(C)cc3)s2)cc1OC
